According to PMC5573328, “Cyclooxygenase-2 contributes to oxidopamine-mediated neuronal inflammation and injury via the prostaglandin E2 receptor EP2 subtype” (Scientific Reports, 2017):

Target: T1, PGE2 receptor EP2 subtype (Mus musculus, UniProt Q62053)
T1 construct: gene Ptger2; endogenous receptor in Neuro-2a cells
Assay: TR-FRET cAMP assay in Neuro-2a cells (agonist dose-response)
Format: cell-based

T1 sequence (Q62053 whole entry): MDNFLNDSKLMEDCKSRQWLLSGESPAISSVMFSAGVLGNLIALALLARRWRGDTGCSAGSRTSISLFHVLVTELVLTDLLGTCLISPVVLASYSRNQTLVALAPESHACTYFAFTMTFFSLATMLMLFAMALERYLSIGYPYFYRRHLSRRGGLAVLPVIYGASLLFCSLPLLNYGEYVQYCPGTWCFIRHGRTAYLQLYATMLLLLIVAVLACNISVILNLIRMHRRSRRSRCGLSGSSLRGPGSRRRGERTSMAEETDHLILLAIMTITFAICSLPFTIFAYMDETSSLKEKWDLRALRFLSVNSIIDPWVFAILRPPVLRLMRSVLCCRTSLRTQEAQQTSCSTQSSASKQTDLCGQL

- EC50: 80 nM
SMILES: CCCC1([C@H](O)C/C=C/[C@H]2[C@H](O)CC(=O)[C@@H]2CCCCCCC(=O)OC)CCC1 [butaprost]
